In ChEMBL document CHEMBL3045393, “Aryldiones incorporating a [1,4,5]oxadiazepane ring. Part I: Discovery of the novel cereal herbicide pinoxaden” (Bioorg Med Chem, 2009):
Active and inactive are the calls of the source. No cut-off for these calls is given here.

Assays:
Alopecurus myosuroides [1] = experiment: Post-emergence herbicidal activity against Alopecurus myosuroides at 30 g a.i./ha measured after 21 days in presence of 0.2% X-77 adjuvant; format: functional
Hordeum vulgare [2] = experiment: Phytotoxicity against Hordeum vulgare (barley) at 125 g a.i./ha applied post-emergence measured after 21 days in presence of 0.2% X-77 adjuvant; format: organism-based; settings: in vivo, other, 504 h
Lolium perenne [3] = experiment: Post-emergence herbicidal activity against Lolium perenne (perennial ryegrass) at 125 g a.i./ha measured after 21 days in presence of 0.2% X-77 adjuvant; format: functional
Triticum aestivum [4] = experiment: Phytotoxicity against Triticum aestivum (wheat) at 30 g a.i./ha applied post-emergence measured after 21 days in presence of 1% Merge adjuvant; format: organism-based; settings: in vivo, other, 504 h
Avena fatua [5] = experiment: Post-emergence herbicidal activity against Avena fatua at 125 g a.i./ha measured after 21 days in presence of 0.2% X-77 adjuvant; format: functional
Alopecurus myosuroides [6] = experiment: Post-emergence herbicidal activity against Alopecurus myosuroides at 125 g a.i./ha measured after 21 days in presence of 0.2% X-77 adjuvant; format: functional
Hordeum vulgare [7] = experiment: Phytotoxicity against Hordeum vulgare (barley) at 30 g a.i./ha applied post-emergence measured after 21 days in presence of 1% Merge adjuvant; format: organism-based; settings: in vivo, other, 504 h
Setaria faberi [8] = experiment: Post-emergence herbicidal activity against Setaria faberi (Giant Foxtail) at 30 g a.i./ha measured after 21 days in presence of 1% Merge adjuvant; format: functional
Lolium perenne [9] = experiment: Post-emergence herbicidal activity against Lolium perenne (perennial ryegrass) at 30 g a.i./ha measured after 21 days in presence of 0.2% X-77 adjuvant; format: functional
Setaria faberi [10] = experiment: Post-emergence herbicidal activity against Setaria faberi (Giant Foxtail) at 30 g a.i./ha measured after 21 days in presence of 0.2% X-77 adjuvant; format: functional
Avena fatua [11] = experiment: Post-emergence herbicidal activity against Avena fatua at 30 g a.i./ha measured after 21 days in presence of 0.2% X-77 adjuvant; format: functional
Triticum aestivum [12] = experiment: Phytotoxicity against Triticum aestivum (wheat) at 30 g a.i./ha applied post-emergence measured after 21 days in presence of 0.2% X-77 adjuvant; format: organism-based; settings: in vivo, other, 504 h
Triticum aestivum [13] = experiment: Phytotoxicity against Triticum aestivum (wheat) at 125 g a.i./ha applied post-emergence measured after 21 days in presence of 0.2% X-77 adjuvant; format: organism-based; settings: in vivo, other, 504 h
Hordeum vulgare [14] = experiment: Phytotoxicity against Hordeum vulgare (barley) at 30 g a.i./ha applied post-emergence measured after 21 days in presence of 0.2% X-77 adjuvant; format: organism-based; settings: in vivo, other, 504 h
Avena fatua [15] = experiment: Post-emergence herbicidal activity against Avena fatua at 30 g a.i./ha measured after 21 days in presence of 1% Merge adjuvant; format: functional
Alopecurus myosuroides [16] = experiment: Post-emergence herbicidal activity against Alopecurus myosuroides at 30 g a.i./ha measured after 21 days in presence of 1% Merge adjuvant; format: functional
Lolium perenne [17] = experiment: Post-emergence herbicidal activity against Lolium perenne (perennial ryegrass) at 30 g a.i./ha measured after 21 days in presence of 1% Merge adjuvant; format: functional
Setaria faberi [18] = experiment: Post-emergence herbicidal activity against Setaria faberi (Giant Foxtail) at 125 g a.i./ha measured after 21 days in presence of 0.2% X-77 adjuvant; format: functional
Triticum aestivum [19] = experiment: Phytotoxicity against Triticum aestivum cv. Remia (wheat) at 60 g a.i./ha applied post-emergence measured after 12 days; format: functional
Avena fatua [20] = experiment: Post-emergence herbicidal activity against Avena fatua at 30 g a.i./ha measured after 20 days in presence of cloquintocet-mexyl; format: functional
[21] = Half life of hydrolysis at pH 7 at 50 degC; format: ADME; settings: buffer
Triticum aestivum [22] = experiment: Phytotoxicity against Triticum aestivum cv. Arina (wheat) at 60 g a.i./ha applied post-emergence measured after 12 days in presence of cloquintocet-mexyl; format: functional
Triticum aestivum [23] = experiment: Phytotoxicity against Triticum aestivum cv. Arina (wheat) at 60 g a.i./ha applied post-emergence measured after 12 days; format: functional
Hordeum vulgare [24] = experiment: Phytotoxicity against Hordeum vulgare cv. Fanfare (barley) at 60 g a.i./ha applied post-emergence measured after 12 days in presence of cloquintocet-mexyl; format: functional
Triticum aestivum [25] = experiment: Phytotoxicity against Triticum aestivum cv. Remia (wheat) at 60 g a.i./ha applied post-emergence measured after 12 days in presence of cloquintocet-mexyl; format: functional
Avena fatua [26] = experiment: Post-emergence herbicidal activity against Avena fatua at 30 g a.i./ha measured after 20 days; format: functional
Lolium rigidum [27] = experiment: Post-emergence herbicidal activity against Lolium rigidum at 30 g a.i./ha measured after 20 days in presence of cloquintocet-mexyl; format: functional
Lolium rigidum [28] = experiment: Post-emergence herbicidal activity against Lolium rigidum at 30 g a.i./ha measured after 20 days; format: functional
Hordeum vulgare [29] = experiment: Phytotoxicity against Hordeum vulgare cv. Fanfare (barley) at 60 g a.i./ha applied post-emergence measured after 12 days; format: functional
Setaria faberi [30] = experiment: Post-emergence herbicidal activity against Setaria faberi (Giant Foxtail) at 2000 g a.i./ha after 21 days; format: functional
Setaria faberi [31] = experiment: Post-emergence herbicidal activity against Setaria faberi (Giant Foxtail) at 500 g a.i./ha after 21 days; format: functional
Lolium perenne [32] = experiment: Post-emergence herbicidal activity against Lolium perenne (perennial ryegrass) at 500 g a.i./ha after 21 days; format: functional
Avena fatua [33] = experiment: Post-emergence herbicidal activity against Avena fatua at 2000 g a.i./ha after 21 days; format: functional
Avena fatua [34] = experiment: Post-emergence herbicidal activity against Avena fatua at 500 g a.i./ha after 21 days; format: functional
Apera spica-venti = experiment: Herbicidal activity against Apera spica-venti at 125 g a.i./ha in presence of cloquintocet-mexyl; format: functional, organism-based
Alopecurus myosuroides [35] = experiment: Herbicidal activity against Alopecurus myosuroides at > / = 250 g a.i./ha in presence of cloquintocet-mexyl; format: functional, organism-based
Lolium multiflorum = experiment: Herbicidal activity against Lolium multiflorum (Italian ryegrass) at 125 g a.i./ha in presence of cloquintocet-mexyl; format: functional, organism-based
Lolium perenne [36] = experiment: Post-emergence herbicidal activity against Lolium perenne (perennial ryegrass) at 2000 g a.i./ha after 21 days; format: functional
Avena fatua [37] = experiment: Herbicidal activity against Avena fatua at > / = 250 g a.i./ha in presence of cloquintocet-mexyl; format: functional, organism-based
Triticum aestivum [38] = experiment: Phytotoxicity against Triticum aestivum (wheat) at 500 g a.i./ha applied post-emergence measured after 15 days; format: organism-based; settings: in vivo, other, 360 h
Hordeum vulgare [39] = experiment: Phytotoxicity against Hordeum vulgare (barley) at 125 g a.i./ha applied post-emergence measured after 21 days; format: organism-based; settings: in vivo, other, 504 h
Alopecurus myosuroides [40] = experiment: Post-emergence herbicidal activity against Alopecurus myosuroides at 125 g a.i./ha measured after 21 days; format: functional
Avena fatua [41] = experiment: Post-emergence herbicidal activity against Avena fatua at 125 g a.i./ha measured after 21 days; format: functional
Lolium perenne [42] = experiment: Post-emergence herbicidal activity against Lolium perenne (perennial ryegrass) at 125 g a.i./ha measured after 21 days; format: functional
Avena fatua [43] = experiment: Post-emergence herbicidal activity against Avena fatua at 500 g a.i./ha measured after 15 days; format: functional
Triticum aestivum [44] = experiment: Phytotoxicity against Triticum aestivum (wheat) at 125 g a.i./ha applied post-emergence measured after 21 days; format: organism-based; settings: in vivo, other, 504 h
Alopecurus myosuroides [45] = experiment: Post-emergence herbicidal activity against Alopecurus myosuroides at 500 g a.i./ha measured after 15 days; format: functional
Lolium perenne [46] = experiment: Post-emergence herbicidal activity against Lolium perenne (perennial ryegrass) at 500 g a.i./ha measured after 15 days; format: functional
Hordeum vulgare [47] = experiment: Phytotoxicity against Hordeum vulgare (barley) at 500 g a.i./ha applied post-emergence measured after 15 days; format: organism-based; settings: in vivo, other, 360 h

`CCc1cccc(CC)c1C1C(=O)N2CCCCN2C1=O` gave an Activity (Alopecurus myosuroides [1]) of 80%, an Activity (Hordeum vulgare [2]) of 0% and an Activity (Lolium perenne [3]) of 40%. The Activity (Triticum aestivum [4]) was 80%, the Activity (Avena fatua [5]) was 80% and the Activity (Alopecurus myosuroides [6]) was 60%. For the same compound, the Activity (Hordeum vulgare [7]) was 80%, the Activity (Setaria faberi [8]) was 90% and the Activity (Lolium perenne [9]) was 50%. For the same compound, the Activity (Setaria faberi [10]) was 40%, the Activity (Avena fatua [11]) was 90% and the Activity (Triticum aestivum [12]) was 40%. For the same compound, the Activity (Triticum aestivum [13]) was 0%, the Activity (Hordeum vulgare [14]) was 10% and the Activity (Avena fatua [15]) was 100%. For the same compound, the Activity (Alopecurus myosuroides [16]) was 100%, the Activity (Lolium perenne [17]) was 80% and the Activity (Setaria faberi [18]) was 40%.

Work on `CCc1cc(C)cc(CC)c1-c1c(OC(=O)C(C)(C)C)n2n(c1=O)CCOCC2` [PINOXADEN] yielded an Activity (Triticum aestivum [19]) of 30%, an Activity (Avena fatua [20]) of 90% and a half-life [21] of 20.6 h. The Activity (Triticum aestivum [22]) was 0%, the Activity (Triticum aestivum [23]) was 30% and the Activity (Triticum aestivum [4]) was 10%. The Activity (Hordeum vulgare [24]) was 0%, the Activity (Triticum aestivum [25]) was 0% and the Activity (Avena fatua [26]) was 90%. The Activity (Hordeum vulgare [7]) was 0%, the Activity (Lolium rigidum [27]) was 95% and the Activity (Setaria faberi [8]) was 90%. It also gave an Activity (Lolium rigidum [28]) of 90%, an Activity (Avena fatua [15]) of 100% and an Activity (Hordeum vulgare [29]) of 20%. For the same compound, the Activity (Alopecurus myosuroides [16]) was 100% and the Activity (Lolium perenne [17]) was 100%.

Compound `CCCCCCCS(=O)(=O)Oc1c(-c2c(CC)cc(C)cc2CC)c(=O)n2n1CCOCC2` has a half-life [21] of 3 h, an Activity (Triticum aestivum [4]) of 20% and an Activity (Hordeum vulgare [7]) of 0%. For the same compound, the Activity (Setaria faberi [8]) was 90%, the Activity (Avena fatua [15]) was 100% and the Activity (Alopecurus myosuroides [16]) was 80%. For the same compound, the Activity (Lolium perenne [17]) was 100%.

For `Cc1cc(C)c(-c2c(OC(=O)C(C)(C)C)n3n(c2=O)CCOCC3)c(C)c1`, the Activity (Setaria faberi [30]) was 100%, the Activity (Setaria faberi [31]) was 90% and the Activity (Lolium perenne [32]) was 90%. The Activity (Avena fatua [33]) was 100%, the Activity (Avena fatua [34]) was 90% and the Activity (Apera spica-venti) was “Active”. For the same compound, the Activity (Alopecurus myosuroides [35]) was “Active”, the Activity (Lolium multiflorum) was “Active” and the Activity (Lolium perenne [36]) was 90%. For the same compound, the Activity (Avena fatua [37]) was “Active”.

`CCc1cc(C)cc(CC)c1C1C(=O)N2CCOCCN2C1=O` [PINOXADEN DIONE] gave an Activity (Triticum aestivum [19]) of 50%, an Activity (Avena fatua [20]) of 90% and an Activity (Triticum aestivum [22]) of 0%. For the same compound, the Activity (Triticum aestivum [23]) was 20%, the Activity (Triticum aestivum [4]) was 10% and the Activity (Hordeum vulgare [24]) was 0%. The Activity (Triticum aestivum [25]) was 0%, the Activity (Avena fatua [26]) was 90% and the Activity (Hordeum vulgare [7]) was 0%. It also gave an Activity (Lolium rigidum [27]) of 90%, an Activity (Setaria faberi [8]) of 90% and an Activity (Lolium rigidum [28]) of 90%. It also gave an Activity (Avena fatua [15]) of 100%, an Activity (Hordeum vulgare [29]) of 40% and an Activity (Alopecurus myosuroides [16]) of 100%. For the same compound, the Activity (Lolium perenne [17]) was 90%.

For `Cc1cc(C)c(C2C(=O)N3CCCCN3C2=O)c(C)c1` [CGA-271312], the Activity (Triticum aestivum [38]) was 60%, the Activity (Hordeum vulgare [39]) was 40% and the Activity (Alopecurus myosuroides [40]) was 40%. The Activity (Avena fatua [41]) was 50%, the Activity (Lolium perenne [42]) was 40% and the Activity (Avena fatua [43]) was 90%. It also gave an Activity (Triticum aestivum [44]) of 0%, an Activity (Alopecurus myosuroides [45]) of 60% and an Activity (Lolium perenne [46]) of 90%. For the same compound, the Activity (Hordeum vulgare [47]) was 90%.
